According to patent US20160257697A1, “THIOPHENE-SUBSTITUTED TETRACYCLIC COMPOUNDS AND METHODS OFUSE THEREOF FOR THE TREATMENT OF VIRAL DISEASES” (priority 2013, published 2016):
Where two headings read alike, the source gives them in different places.

Columns and labels:
HCV replicon 1A = assay: microbe, parasite or virus in culture; type: cell-based, Hepatitis C virus (HCV); details: Replicon Assay A
Procedure: (§1) To measure cell-based anti-HCV activity of compounds of the present invention, two complimentary assays were employed using various replicons. In the first assay (“Replicon Assay A”), replicon cells were seeded at 2000 cells/well in 384-well 384-well flat bottom tissue culture treated clear bottom plate (Corning 3707) in the presence of the test compound. […] The final concentration of DMSO was 0.5%. Fetal bovine serum was 5%, in the assay media. Cells were harvested on day 3 by removing media and washing the cells with a suitable wash buffer. The cells are lysed with the addition of 1× Qiagen lysis buffer (Cat #1062731). The replicon RNA level was measured using real time PCR (TaqMan® EZ RT-PCR, Applied Biosystems 403028) with the following primers and probes: […]
(§2) Cyclophilin RNA was used as endogenous control and was amplified in the same reaction as NS5B (multiplex PCR). The real-time RT-PCR reactions were run on ABI PRISM 7900HT Sequence Detection System using the following program: 50° C. for 2 minutes, 60° C. for 30 minutes, 95° C. for 5 minutes, 40 cycles of 94° C. for 20 sec, 55° C. for 1 minutes.
(§3) The amount of HCV replicon RNA per cell is quantified using a linear regression curve for a known nanogram (ng) amount of HCV replicon total RNA. This is established by plotting the Cycle Threshold values (Ct) from the Neo probe and primer set versus the log (ng) for each HCV replicon total RNA standard. The amount of HCV RNA for each replicon sample is calculated by taking the sample's Ct value, minus the line intercept, divided by the slope of the line. Similarly, the amount of Cyclophilin mRNA per cell is also quantified using a linear regression curve for a known nanogram (ng) amount of HCV replicon total RNA. Again, this is established by plotting the Cycle Threshold values (Ct) from the Cyclophilin probe and primer set versus the log (ng) for each HCV replicon total RNA standard.
(§4) Data for replicons 1A, 1AY93H and 2B were obtained using Replicon Assay A and data for replicons 1AQ30D and 1B were obtained using Replicon Assay B.

HCV replicon 2B = assay: microbe, parasite or virus in culture; type: cell-based, Hepatitis C virus (HCV); details: Replicon Assay A
Procedure: as §1, §2, §3, §4

[1] = read-out: 2B IC50, HCV replicon 2B
[2] = Hepatitis C virus, read-out: 2B IC50, HCV replicon 2B

Row | Compound | IC50 (HCV replicon 1A; replicon 1A) | IC50 (HCV replicon 2B; [1]) | other results
1 | COC(=O)NC(C(=O)N1CCC[C@H]1c1ncc(-c2ccc3c(c2)cc2n3C(c3ccc(C4CC4)s3)Oc3cc(-c4cnc([C@@H]5CCCN5C(=O)[C@@H](NC(=O)OC)C(C)C)[nH]4)cc(F)c3-2)[nH]1)C1CN(C(=O)C2CC2)C1 (single isomer, unassigned) [Compound 270] | 0.62 nM | – | –
2 | CCc1ccc(C2Oc3cc(-c4cnc([C@@H]5CCCN5C(=O)C(NC(=O)OC)C5CCOC(C)(C)C5)[nH]4)cc(F)c3-c3cc4cc(-c5cnc([C@@H]6CCCN6C(=O)C(NC(=O)OC)C6CCOC(C)(C)C6)[nH]5)ccc4n32)s1 (single isomer, unassigned) [Compound 294] | > 1.67 nM | – | –
3 | CCCc1ccc(C2Oc3cc(-c4cnc([C@@H]5CCCN5C(=O)[C@@H](NC(=O)OC)C(C)C)[nH]4)cc(F)c3-c3cc4cc(-c5cnc([C@@H]6C[C@H]7C[C@H]7N6C(=O)[C@@H](NC(=O)OC)C(C)C)[nH]5)ccc4n32)s1 (single isomer, unassigned) [Compound 562] | – | 0.754 nM | –
4 | COC(=O)NC(C(=O)N1[C@@H]2C[C@@H]2C[C@H]1c1ncc(-c2ccc3c(c2)cc2n3C(c3cc4ccccc4s3)Oc3cc(-c4cnc([C@@H]5CCCN5C(=O)[C@@H](NC(=O)OC)C(C)C)[nH]4)cc(F)c3-2)[nH]1)C1C[C@@H](C)O[C@@H](C)C1 (single isomer, unassigned) [Compound 647] | – | 0.153 nM | IC50 (HCV replicon 1A; Hepatitis C virus, HCV replicon 1A): 0.0026 nM
5 | COC(=O)N[C@H](C(=O)N1CCC[C@H]1c1ncc(-c2cc(F)c3c(c2)OC(c2ccc(C4CC4(F)F)s2)n2c-3cc3cc(-c4cnc([C@@H]5CCCN5C(=O)[C@@H](NC(=O)OC)C(C)C)[nH]4)ccc32)[nH]1)C(C)C (single isomer, unassigned) [Compound 117] | – | – | IC50 (HCV replicon 2B; read-out: 2B IC50, replicon 2B): 0.028 nM
6 | COC(=O)NC(C(=O)N1CCC[C@H]1c1ncc(-c2ccc3c(c2)cc2n3C(c3ccc(C(C)C)s3)Oc3cc(-c4cnc([C@@H]5CCCN5C(=O)[C@@H](NC(=O)OC)C(C)C)[nH]4)cc(F)c3-2)[nH]1)C1C[C@@H](C)O[C@@H](C)C1 (single isomer, unassigned) [Compound 233] | 0.066 nM | – | –
7 | CCCc1ccc(C2Oc3cc(-c4cnc([C@@H]5CCCN5C(=O)[C@@H](NC(=O)OC)C(C)C)[nH]4)cc(F)c3-c3cc4cc(-c5cnc([C@@H]6CCCN6C(=O)C(NC(=O)OC)C6CCOC(C)(C)C6)[nH]5)ccc4n32)s1 (single isomer, unassigned) [Compound 566] | – | 0.31 nM | –
8 | CCc1ccc(C2Oc3cc(-c4cnc([C@@H]5CCCN5C(=O)C(NC(=O)OC)C5C[C@@H](C)O[C@@H](C)C5)[nH]4)cc(F)c3-c3cc4cc(-c5cnc([C@@H]6CCCN6C(=O)[C@@H](NC(=O)OC)C(C)C)[nH]5)ccc4n32)s1 (single isomer, unassigned) [Compound 155] | 0.167 nM | – | –
9 | COC(=O)NC(C(=O)N1[C@@H]2C[C@@H]2C[C@H]1c1ncc(-c2ccc3c(c2)cc2n3C(c3ccc(C(F)F)s3)Oc3cc(-c4cnc([C@@H]5CCCN5C(=O)[C@@H](NC(=O)OC)C(C)C)[nH]4)cc(F)c3-2)[nH]1)C1C[C@@H](C)O[C@@H](C)C1 (single isomer, unassigned) [Compound 286] | – | – | IC50 (HCV replicon 1A; Hepatitis C virus, replicon 1A): 0.001 nM; IC50 (HCV replicon 2B; read-out: 2B IC50, replicon 2B): 0.018 nM
10 | COC(=O)N[C@H](C(=O)N1CCC[C@H]1c1ncc(-c2cc(F)c3c(c2)OC(c2ccc(C4CC4(F)F)s2)n2c-3cc3cc(-c4cnc([C@@H]5CCCN5C(=O)[C@@H](NC(=O)OC)C(C)C)[nH]4)ccc32)[nH]1)C(C)C (single isomer, unassigned) [Compound 119] | – | – | IC50 (HCV replicon 2B; read-out: 2B IC50, replicon 2B): 0.073 nM
11 | CCCc1ccc(C2Oc3cc(-c4cnc([C@@H]5CCCN5C(=O)[C@@H](NC(=O)OC)C(C)C)[nH]4)cc(F)c3-c3cc4cc(-c5cnc([C@@H]6CCCN6C(=O)C(NC(=O)OC)C6CCOC(C)(C)C6)[nH]5)ccc4n32)s1 (single isomer, unassigned) [Compound 567] | – | 0.011 nM | –
12 | COC(=O)NC(C(=O)N1CCC[C@H]1c1ncc(-c2cc(F)c3c(c2)OC(c2ccc(C4CC4)s2)n2c-3cc3cc(-c4cnc([C@@H]5CCCN5C(=O)C(NC(=O)OC)C5C[C@@H](C)O[C@@H](C)C5)[nH]4)ccc32)[nH]1)C1C[C@@H](C)O[C@@H](C)C1 (single isomer, unassigned) [Compound 302] | > 13 nM | – | –
13 | COC(=O)NC(C(=O)N1CCC[C@H]1c1ncc(-c2ccc3c(c2)cc2n3C(c3ccc(C4CC4)s3)Oc3cc(-c4cnc([C@@H]5CCCN5C(=O)[C@@H](NC(=O)OC)C(C)C)[nH]4)cc(C)c3-2)[nH]1)C1CCOC(C)(C)C1 (single isomer, unassigned) [Compound 565] | – | – | IC50 (HCV replicon 2B; [2]): 0.17 nM
14 | C=C(C)C1Oc2cc(-c3cnc([C@@H]4CCCN4C(=O)[C@@H](N)C(C)C)[nH]3)cc(F)c2-c2cc3cc(-c4cnc([C@@H]5C[C@H]6C[C@H]6N5C(C)=O)[nH]4)ccc3n21 (single isomer, unassigned) [Compound 572] | – | 0.031 nM | –
15 | COC(=O)NC(C(=O)N1[C@@H]2C[C@@H]2C[C@H]1c1ncc(-c2ccc3c(c2)cc2n3C(c3ccc(C(F)F)s3)Oc3cc(-c4cnc([C@@H]5CCCN5C(=O)[C@@H](NC(=O)OC)C(C)C)[nH]4)cc(F)c3-2)[nH]1)C1C[C@@H](C)O[C@@H](C)C1 (single isomer, unassigned) [Compound 285] | – | – | IC50 (HCV replicon 2B; read-out: 2B IC50, replicon 2B): 0.79 nM
16 | COC(=O)N[C@H](C(=O)N1CCC[C@H]1c1ncc(-c2cc(F)c3c(c2)OC(c2ccc(C4CC4(F)F)s2)n2c-3cc3cc(-c4cnc([C@@H]5CCCN5C(=O)[C@@H](NC(=O)OC)C(C)C)[nH]4)ccc32)[nH]1)C(C)C (single isomer, unassigned) [Compound 116] | – | – | IC50 (HCV replicon 2B; read-out: 2B IC50, replicon 2B): 1.85 nM
17 | CCCc1ccc(C2Oc3cc(-c4cnc([C@@H]5CCCN5C(=O)[C@@H](NC(=O)OC)C(C)C)[nH]4)cc(F)c3-c3cc4cc(-c5cnc([C@@H]6C[C@H]7C[C@H]7N6C(=O)[C@@H](NC(=O)OC)C(C)C)[nH]5)ccc4n32)s1 (single isomer, unassigned) [Compound 561] | – | 0.23 nM | –
18 | COC(=O)N[C@H](C(=O)N1CCC[C@H]1c1ncc(-c2cc(F)c3c(c2)OC(c2cc4c(s2)C(C)(C)CC4)n2c-3cc3cc(-c4cnc([C@@H]5CCCN5C(=O)[C@@H](NC(=O)OC)C(C)C)[nH]4)ccc32)[nH]1)C(C)C (single isomer, unassigned) [Compound 391] | – | – | IC50 (HCV replicon 1A; Hepatitis C virus, replicon 1A): 0.0035 nM
19 | CCc1ccc(C2Oc3cc(-c4cnc([C@@H]5CCCN5C(=O)C(NC(=O)OC)C5CCOC(C)(C)C5)[nH]4)cc(F)c3-c3cc4cc(-c5cnc([C@@H]6CCCN6C(=O)C(NC(=O)OC)C6CCOC(C)(C)C6)[nH]5)ccc4n32)s1 (single isomer, unassigned) [Compound 293] | > 1.67 nM | – | –
20 | COC(=O)NC(C(=O)N1CCC[C@H]1c1ncc(-c2ccc3c(c2)cc2n3C(c3ccc(C4CC4)s3)Oc3cc(-c4cnc([C@@H]5CCCN5C(=O)[C@@H](NC(=O)OC)C(C)C)[nH]4)cc(F)c3-2)[nH]1)C1CC2CCC(C1)O2 (single isomer, unassigned) [Compound 180] | – | – | IC50 (HCV replicon 1A; Hepatitis C virus, replicon 1A): 0.0025 nM
21 | COC(=O)NC(C(=O)N1CCC[C@H]1c1ncc(-c2ccc3c(c2)cc2n3C(c3cc4c(s3)CCC4)Oc3cc(-c4cnc([C@@H]5CCCN5C(=O)[C@@H](NC(=O)OC)C(C)C)[nH]4)cc(F)c3-2)[nH]1)C1C[C@@H](C)O[C@@H](C)C1 (single isomer, unassigned) [Compound 204] | – | – | IC50 (HCV replicon 2B; Hepatitis C virus, read-out: 2B IC50 (nM), replicon 2B): 0.26 nM
22 | COC(=O)NC(C(=O)N1CCC[C@H]1c1ncc(-c2ccc3c(c2)cc2n3C(c3ccc(CC(F)(F)F)s3)Oc3cc(-c4cnc([C@@H]5CCCN5C(=O)[C@@H](NC(=O)OC)C(C)C)[nH]4)cc(F)c3-2)[nH]1)C1CCOC(C)(C)C1 (single isomer, unassigned) [Compound 425] | – | – | IC50 (HCV replicon 2B; [2]): 0.011 nM
23 | CCc1ccc(C2Oc3cc(-c4cnc([C@@H]5CCCN5C(=O)C(NC(=O)OC)C5CCOC(C)(C)C5)[nH]4)cc(F)c3-c3cc4cc(-c5cnc([C@@H]6CCCN6C(=O)[C@@H](NC(=O)OC)C(C)C)[nH]5)ccc4n32)s1 (single isomer, unassigned) [Compound 161] | 0.0586 nM | – | –
24 | COC(=O)NC(C(=O)N1[C@@H]2C[C@@H]2C[C@H]1c1ncc(-c2ccc3c(c2)cc2n3C(c3cc4ccccc4s3)Oc3cc(-c4cnc([C@@H]5CCCN5C(=O)[C@@H](NC(=O)OC)C(C)C)[nH]4)cc(F)c3-2)[nH]1)C1C[C@@H](C)O[C@@H](C)C1 (single isomer, unassigned) [Compound 646] | – | 0.173 nM | –
25 | C=C(C)C1Oc2cc(-c3cnc([C@@H]4CCCN4C(=O)[C@@H](N)C(C)C)[nH]3)cc(F)c2-c2cc3cc(-c4cnc([C@@H]5C[C@H]6C[C@H]6N5C(C)=O)[nH]4)ccc3n21 (single isomer, unassigned) [Compound 571] | – | 0.087 nM | –
26 | COC(=O)NC(C(=O)N1CCC[C@H]1c1ncc(-c2ccc3c(c2)cc2n3C(c3ccc(C4CC4)s3)Oc3cc(-c4cnc([C@@H]5CCCN5C(=O)[C@@H](NC(=O)OC)C(C)C)[nH]4)cc(F)c3-2)[nH]1)C1CN(C(=O)C2CC2)C1 (single isomer, unassigned) [Compound 268] | 0.045 nM | – | –
